# Data reported in the supplement of paper PMC10307832.
# Assays:
# Experiment in all cases: relative viability (nuclei count vs DMSO), 5 days (fraction); higher = more cells survive
# [1] = system: NCI-H2170
# Procedure, shortened: (§1)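 A single step with final 0.05% Triton X-100, 1% formaldehyde and 1 ug/ml Hoechst fixed the cells and stained nuclei 5 days after treatment. Lung cancer cell lines in 1536-well plates had been treated by pin tool the day after seeding with one drug alone or a fixed anchor-drug dose plus five library-drug doses (not always all listed) in √10 steps, and nuclei were counted on 4× images. Relative viability is the ratio of nuclei in treated wells to nuclei in vehicle wells, taken as the median of duplicate plates.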
# [2] = system: H3255
# Procedure, shortened: as §1
# [3] = system: NCI-H2126
# Procedure, shortened: as §1
# [4] = system: NCI-H322M
# Procedure, shortened: as §1
# [5] = system: ChaGo-K-1
# Procedure, shortened: as §1
# [6] = system: NCI-H596
# Procedure, shortened: as §1
# [7] = system: HOP-62
# Procedure, shortened: as §1
# [8] = system: NCI-H441
# Procedure, shortened: as §1
# [9] = system: 201T
# Procedure, shortened: as §1
# [10] = system: PC-14
# Procedure, shortened: as §1
# [11] = system: NCI-H3122
# Procedure, shortened: as §1
# [12] = system: NCI-H1755
# Procedure, shortened: as §1
# [13] = system: SK-MES-1
# Procedure, shortened: as §1
# [14] = system: LXF-289
# Procedure, shortened: as §1
# [15] = system: EMC-BAC-2
# Procedure, shortened: as §1
# [16] = system: LK-2
# Procedure, shortened: as §1
# [17] = system: NCI-H2009
# Procedure, shortened: as §1
# [18] = system: NCI-H2087
# Procedure, shortened: as §1
# [19] = system: NCI-H1734
# Procedure, shortened: as §1
# [20] = system: CAL-12T
# Procedure, shortened: as §1
# [21] = system: NCI-H647
# Procedure, shortened: as §1
# [22] = system: NCI-H1651
# Procedure, shortened: as §1
smiles,measurement,setting,value
O=c1[nH]c2ccccc2n1C1CCN(CCCC(c2ccc(F)cc2)c2ccc(F)cc2)CC1 [Pimozide] + Nc1nc2[nH]cc(CCc3ccc(C(=O)N[C@@H](CCC(=O)O)C(=O)O)cc3)c2c(=O)[nH]1 [Pemetrexed] (partner 0.2 µM),relative viability,[1]; first compound 0.08 µM,0.273
same,relative viability,[1]; first compound 0.253 µM,0.242
same,relative viability,[1]; first compound 0.8 µM,0.263
same,relative viability,[1]; first compound 2.53 µM,0.258
same,relative viability,[1]; first compound 8 µM,0.258
same,relative viability,[2]; first compound 0.253 µM,0.53
same,relative viability,[2]; first compound 0.8 µM,0.503
same,relative viability,[2]; first compound 2.53 µM,0.519
same,relative viability,[2]; first compound 8 µM,0.578
same,relative viability,[3]; first compound 0.08 µM,0.65
same,relative viability,[3]; first compound 0.253 µM,0.659
same,relative viability,[3]; first compound 0.8 µM,0.637
same,relative viability,[3]; first compound 2.53 µM,0.659
same,relative viability,[3]; first compound 8 µM,0.652
same,relative viability,[4]; first compound 0.08 µM,0.571
same,relative viability,[4]; first compound 0.253 µM,0.668
same,relative viability,[4]; first compound 0.8 µM,0.622
same,relative viability,[4]; first compound 2.53 µM,0.604
same,relative viability,[4]; first compound 8 µM,0.609
same,relative viability,[5]; first compound 0.08 µM,0.248
same,relative viability,[5]; first compound 0.253 µM,0.277
same,relative viability,[5]; first compound 0.8 µM,0.245
same,relative viability,[5]; first compound 2.53 µM,0.267
same,relative viability,[5]; first compound 8 µM,0.254
same,relative viability,[6]; first compound 0.08 µM,0.538
same,relative viability,[6]; first compound 0.253 µM,0.487
same,relative viability,[6]; first compound 0.8 µM,0.534
same,relative viability,[6]; first compound 2.53 µM,0.436
same,relative viability,[6]; first compound 8 µM,0.479
same,relative viability,[7]; first compound 0.08 µM,0.275
same,relative viability,[7]; first compound 0.253 µM,0.362
same,relative viability,[7]; first compound 2.53 µM,0.283
same,relative viability,[7]; first compound 8 µM,0.284
same,relative viability,[8]; first compound 0.08 µM,0.27
same,relative viability,[8]; first compound 0.253 µM,0.314
same,relative viability,[8]; first compound 0.8 µM,0.276
same,relative viability,[8]; first compound 2.53 µM,0.265
same,relative viability,[8]; first compound 8 µM,0.238
same,relative viability,[9]; first compound 0.08 µM,0.31
same,relative viability,[9]; first compound 0.253 µM,0.334
same,relative viability,[9]; first compound 0.8 µM,0.332
same,relative viability,[9]; first compound 2.53 µM,0.312
same,relative viability,[9]; first compound 8 µM,0.276
same,relative viability,[10]; first compound 0.253 µM,0.14
same,relative viability,[10]; first compound 0.8 µM,0.14
same,relative viability,[10]; first compound 2.53 µM,0.0963
same,relative viability,[10]; first compound 8 µM,0.063
same,relative viability,[11]; first compound 0.08 µM,0.238
same,relative viability,[11]; first compound 0.253 µM,0.206
same,relative viability,[11]; first compound 0.8 µM,0.178
same,relative viability,[11]; first compound 2.53 µM,0.195
same,relative viability,[11]; first compound 8 µM,0.2
same,relative viability,[12]; first compound 0.08 µM,0.707
same,relative viability,[12]; first compound 0.253 µM,0.423
same,relative viability,[12]; first compound 0.8 µM,0.516
same,relative viability,[12]; first compound 2.53 µM,0.389
same,relative viability,[12]; first compound 8 µM,0.393
same,relative viability,[13]; first compound 0.08 µM,0.982
same,relative viability,[13]; first compound 0.253 µM,0.861
same,relative viability,[13]; first compound 0.8 µM,0.919
same,relative viability,[13]; first compound 2.53 µM,0.888
same,relative viability,[13]; first compound 8 µM,0.902
same,relative viability,[14]; first compound 0.08 µM,0.859
same,relative viability,[14]; first compound 0.253 µM,0.873
same,relative viability,[14]; first compound 0.8 µM,0.859
same,relative viability,[14]; first compound 2.53 µM,0.869
same,relative viability,[14]; first compound 8 µM,0.874
same,relative viability,[15]; first compound 0.08 µM,0.464
same,relative viability,[15]; first compound 0.253 µM,0.462
same,relative viability,[15]; first compound 0.8 µM,0.392
same,relative viability,[15]; first compound 2.53 µM,0.428
same,relative viability,[15]; first compound 8 µM,0.438
same,relative viability,[16]; first compound 0.08 µM,0.243
same,relative viability,[16]; first compound 0.253 µM,0.268
same,relative viability,[16]; first compound 0.8 µM,0.335
same,relative viability,[16]; first compound 8 µM,0.265
same,relative viability,[17]; first compound 0.08 µM,1.07
same,relative viability,[17]; first compound 0.253 µM,1
same,relative viability,[17]; first compound 0.8 µM,0.975
same,relative viability,[17]; first compound 2.53 µM,0.963
same,relative viability,[17]; first compound 8 µM,0.973
same,relative viability,[18]; first compound 0.08 µM,0.655
same,relative viability,[18]; first compound 0.253 µM,0.608
same,relative viability,[18]; first compound 2.53 µM,0.616
same,relative viability,[18]; first compound 8 µM,0.642
same,relative viability,[19]; first compound 0.08 µM,0.401
same,relative viability,[19]; first compound 0.253 µM,0.436
same,relative viability,[19]; first compound 0.8 µM,0.401
same,relative viability,[19]; first compound 2.53 µM,0.416
same,relative viability,[19]; first compound 8 µM,0.434
same,relative viability,[20]; first compound 0.08 µM,1.22
same,relative viability,[20]; first compound 0.253 µM,1.22
same,relative viability,[20]; first compound 0.8 µM,1.14
same,relative viability,[20]; first compound 2.53 µM,1.22
same,relative viability,[20]; first compound 8 µM,1.11
same,relative viability,[21]; first compound 0.08 µM,0.186
same,relative viability,[21]; first compound 0.253 µM,0.188
same,relative viability,[21]; first compound 0.8 µM,0.175
same,relative viability,[21]; first compound 2.53 µM,0.2
same,relative viability,[21]; first compound 8 µM,0.128
same,relative viability,[22]; first compound 0.08 µM,0.603
same,relative viability,[22]; first compound 0.253 µM,0.487
same,relative viability,[22]; first compound 0.8 µM,0.697
same,relative viability,[22]; first compound 2.53 µM,0.562
same,relative viability,[22]; first compound 8 µM,0.566
